Key:
barnyardgrass [1] = experiment: Test C preemergence; format: in vivo, Echinochloa crusgalli; conditions: for Plant response rating, Barnyardgrass: Preemergence; for Barnyardgrass plant response rating: preemergence
How it was run: (§1)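 Test material, in non-phytotoxic solvent with surfactant, was sprayed on the soil directly after seeding (preemergence) or on young plants of 2–10 cm with one to two leaves (postemergence). Greenhouse, 10 days; 0–100 visual control scale.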

blackgrass [2] = experiment: Test C preemergence; format: in vivo, Alopecurus myosuroides; conditions: for Plant response rating, Blackgrass: Preemergence; for Blackgrass plant response rating: preemergence
How it was run: as §1

corn [3] = experiment: Test C preemergence; format: in vivo, Zea mays; conditions: for Plant response rating, Corn: Preemergence; for Corn plant response rating: preemergence
How it was run: as §1

green foxtail [4] = experiment: Test C preemergence; format: in vivo, Setaria viridis; conditions: for Plant response rating, Foxtail, Green: Preemergence; for Foxtail, Green plant response rating: preemergence
How it was run: as §1

kochia [5] = experiment: Test C preemergence; format: in vivo, Bassia scoparia; conditions: for Plant response rating, Kochia: Preemergence; for Kochia plant response rating: preemergence
How it was run: as §1

oat, wild [6] = experiment: Test C preemergence; format: in vivo, Avena fatua; conditions: for Plant response rating, Oat, Wild: Preemergence; for Oat, Wild plant response rating: preemergence
How it was run: as §1

pigweed, palmer [7] = experiment: Test C preemergence; format: in vivo, Amaranthus palmeri; conditions: for Plant response rating, Pigweed, Palmer: Preemergence; for Pigweed, Palmer plant response rating: preemergence
How it was run: as §1

ragweed [8] = experiment: Test C preemergence; format: in vivo, Ambrosia artemisiifolia; conditions: for Plant response rating, Ragweed: Preemergence; for Ragweed plant response rating: preemergence
How it was run: as §1

ryegrass, Italian [9] = experiment: Test C preemergence; format: in vivo, Lolium multiflorum; conditions: for Plant response rating, Ryegrass, Italian: Preemergence; for Ryegrass, Italian plant response rating: preemergence
How it was run: as §1

soybean [10] = experiment: Test C preemergence; format: in vivo, Glycine max; conditions: for Plant response rating, Soybean: Preemergence; for Soybean plant response rating: preemergence
How it was run: as §1

wheat [11] = experiment: Test C preemergence; format: in vivo, Triticum aestivum; conditions: for Plant response rating, Wheat: Preemergence; for Wheat plant response rating: preemergence
How it was run: as §1

barnyardgrass [12] = experiment: Test C postemergence; format: in vivo, Echinochloa crusgalli; conditions: 10 days
How it was run: as §1

blackgrass [13] = experiment: Test C postemergence; format: in vivo, Alopecurus myosuroides; conditions: 10 days
How it was run: as §1

corn [14] = experiment: Test C postemergence; format: in vivo, Zea mays; conditions: 10 days
How it was run: as §1

green foxtail [15] = experiment: Test C postemergence; format: in vivo, Setaria viridis; conditions: 10 days
How it was run: as §1

kochia [16] = experiment: Test C postemergence; format: in vivo, Bassia scoparia; conditions: 10 days
How it was run: as §1

oat, wild [17] = experiment: Test C postemergence; format: in vivo, Avena fatua; conditions: 10 days
How it was run: as §1

pigweed, palmer [18] = experiment: Test C postemergence; format: in vivo, Amaranthus palmeri; conditions: 10 days
How it was run: as §1

ragweed [19] = experiment: Test C postemergence; format: in vivo, Ambrosia artemisiifolia; conditions: 10 days
How it was run: as §1

ryegrass, Italian [20] = experiment: Test C postemergence; format: in vivo, Lolium multiflorum; conditions: 10 days
How it was run: as §1

soybean [21] = experiment: Test C postemergence; format: in vivo, Glycine max; conditions: 10 days
How it was run: as §1

wheat [22] = experiment: Test C postemergence; format: in vivo, Triticum aestivum; conditions: 10 days
How it was run: as §1

horseweed = experiment: Test C postemergence; format: in vivo, Erigeron canadensis; conditions: 10 days
How it was run: as §1

barnyardgrass [23] = experiment: Test D flooded paddy test; format: in vivo, Echinochloa crus-galli; conditions: 250 g ai/ha, applied to paddy water, visual rating after 13 to 14 days, scale 0 to 100 (0 no effect, 100 complete control)
How it was run: (§2)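 Visual ratings from 0, meaning no effect, to 100, meaning complete control, were assigned against untreated controls 13 to 14 days after compounds were added to the floodwater of pots kept 3 cm deep, with plants at the 2-leaf stage.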

ducksalad = experiment: Test D flooded paddy test; format: in vivo, Heteranthera limosa; conditions: 250 g ai/ha, applied to paddy water, visual rating after 13 to 14 days, scale 0 to 100 (0 no effect, 100 complete control)
How it was run: as §2

rice = experiment: Test D flooded paddy test; format: in vivo, Oryza sativa; conditions: 250 g ai/ha, applied to paddy water, visual rating after 13 to 14 days, scale 0 to 100 (0 no effect, 100 complete control)
How it was run: as §2

sedge, umbrella = experiment: Test D flooded paddy test; format: in vivo, Cyperus difformis; conditions: 250 g ai/ha, applied to paddy water, visual rating after 13 to 14 days, scale 0 to 100 (0 no effect, 100 complete control)
How it was run: as §2

[24] = 500 g ai/ha, visual rating after 10 days, 0 to 100 scale (0 no effect, 100 complete control)
[25] = Test C, 125 g ai/ha, 0 to 100 scale (0 no effect, 100 complete control)
[26] = 125 g ai/ha, postemergence, 0 to 100 scale, 0 no effect, 100 complete control
[27] = Postemergence, 500 g ai/ha, visual 0 to 100 scale (0 no effect, 100 complete control)
[28] = 500 g ai/ha, 0 to 100 scale (0 no effect, 100 complete control)
[29] = 125 g ai/ha, 0 to 100 scale, 0 no effect, 100 complete control
[30] = 500 g ai/ha, postemergence, 0 to 100 scale (0 no effect, 100 complete control)
[31] = Postemergence, 125 g ai/ha, 0 to 100 scale (0 no effect, 100 complete control)

COc1cc(C(=O)N2C[C@H](C)Oc3c(Cl)cccc32)cc(-n2cnc(C3CC3)n2)c1 [Compound 216]
Plant response rating, Barnyardgrass (barnyardgrass [1]; [24]): 90 | Barnyardgrass plant response rating (barnyardgrass [1]; [25]): 40 | Plant response rating, Blackgrass (blackgrass [2]; [24]): 90 | Blackgrass plant response rating (blackgrass [2]; [25]): 20 | Plant response rating, Corn (corn [3]; [24]): 30 | Corn plant response rating (corn [3]; [25]): 0 | Plant response rating, Foxtail, Green (green foxtail [4]; [24]): 100 | Foxtail, Green plant response rating (green foxtail [4]; [25]): 100 | Plant response rating, Kochia (kochia [5]; [24]): 100 | Kochia plant response rating (kochia [5]; [25]): 70 | Plant response rating, Oat, Wild (oat, wild [6]; [24]): 40 | Oat, Wild plant response rating (oat, wild [6]; [25]): 0 | Plant response rating, Pigweed, Palmer (pigweed, palmer [7]; [24]): 100 | Pigweed, Palmer plant response rating (pigweed, palmer [7]; [25]): 100 | Plant response rating, Ragweed (ragweed [8]; [24]): 40 | Ragweed plant response rating (ragweed [8]; [25]): 0 | Plant response rating, Ryegrass, Italian (ryegrass, Italian [9]; [24]): 90 | Ryegrass, Italian plant response rating (ryegrass, Italian [9]; [25]): 80 | Plant response rating, Soybean (soybean [10]; [24]): 100 | Soybean plant response rating (soybean [10]; [25]): 50 | Plant response rating, Wheat (wheat [11]; [24]): 20 | Wheat plant response rating (wheat [11]; [25]): 0 | Plant response rating, Barnyardgrass (barnyardgrass [12]; [26]): 10 | Plant response rating, Barnyardgrass (barnyardgrass [12]; [27]): 60 | Plant response rating, Blackgrass (blackgrass [13]; [26]): 30 | Plant response rating, Blackgrass (blackgrass [13]; [27]): 100 | Plant response rating, Corn (corn [14]; [26]): 10 | Plant response rating, Corn (corn [14]; [27]): 20 | Plant response rating, Foxtail, Green (green foxtail [15]; [26]): 70 | Plant response rating, Foxtail, Green (green foxtail [15]; [27]): 90 | Plant response rating, Kochia (kochia [16]; [26]): 80 | Plant response rating, Kochia (kochia [16]; [27]): 90 | Plant response rating, Oat, Wild (oat, wild [17]; [26]): 20 | Plant response rating, Oat, Wild (oat, wild [17]; [27]): 20 | Plant response rating, Pigweed, Palmer (pigweed, palmer [18]; [26]): 80 | Plant response rating, Pigweed, Palmer (pigweed, palmer [18]; [27]): 90 | Plant response rating, Ragweed (ragweed [19]; [26]): 60 | Plant response rating, Ragweed (ragweed [19]; [27]): 80 | Plant response rating, Ryegrass, Italian (ryegrass, Italian [20]; [26]): 20 | Plant response rating, Ryegrass, Italian (ryegrass, Italian [20]; [27]): 60 | Plant response rating, Soybean (soybean [21]; [26]): 100 | Plant response rating, Soybean (soybean [21]; [27]): 100 | Plant response rating, Wheat (wheat [22]; [26]): 20 | Plant response rating, Wheat (wheat [22]; [27]): 30 | Plant response rating, Horseweed (horseweed; [26]): 0 | Plant response rating, Horseweed (horseweed; [27]): 50 | Plant response rating, Barnyardgrass (Flood) (barnyardgrass [23]): 40 | Plant response rating, Ducksalad (Flood) (ducksalad): 100 | Plant response rating, Rice (Flood) (rice): 10 | Plant response rating, Sedge, Umbrella (Flood) (sedge, umbrella): 95

Cc1ccc(-n2cnc(C3(C#N)CC3)n2)cc1C(=O)N1C[C@H](C)Oc2c(Cl)cccc21 [Compound 398]
Barnyardgrass plant response rating (barnyardgrass [1]; [28]): 90 | Plant response rating, Barnyardgrass (barnyardgrass [1]; [29]): 60 | Blackgrass plant response rating (blackgrass [2]; [28]): 40 | Plant response rating, Blackgrass (blackgrass [2]; [29]): 30 | Corn plant response rating (corn [3]; [28]): 0 | Plant response rating, Corn (corn [3]; [29]): 0 | Foxtail, Green plant response rating (green foxtail [4]; [28]): 100 | Plant response rating, Foxtail, Green (green foxtail [4]; [29]): 100 | Kochia plant response rating (kochia [5]; [28]): 100 | Plant response rating, Kochia (kochia [5]; [29]): 90 | Oat, Wild plant response rating (oat, wild [6]; [28]): 40 | Plant response rating, Oat, Wild (oat, wild [6]; [29]): 0 | Pigweed, Palmer plant response rating (pigweed, palmer [7]; [28]): 100 | Plant response rating, Pigweed, Palmer (pigweed, palmer [7]; [29]): 100 | Ragweed plant response rating (ragweed [8]; [28]): 30 | Plant response rating, Ragweed (ragweed [8]; [29]): 0 | Ryegrass, Italian plant response rating (ryegrass, Italian [9]; [28]): 80 | Plant response rating, Ryegrass, Italian (ryegrass, Italian [9]; [29]): 40 | Soybean plant response rating (soybean [10]; [28]): 60 | Plant response rating, Soybean (soybean [10]; [29]): 40 | Wheat plant response rating (wheat [11]; [28]): 20 | Plant response rating, Wheat (wheat [11]; [29]): 0 | Plant response rating, Barnyardgrass (barnyardgrass [12]; [30]): 50 | Plant response rating, Barnyardgrass (barnyardgrass [12]; [31]): 20 | Plant response rating, Blackgrass (blackgrass [13]; [30]): 90 | Plant response rating, Blackgrass (blackgrass [13]; [31]): 70 | Plant response rating, Corn (corn [14]; [30]): 80 | Plant response rating, Corn (corn [14]; [31]): 10 | Plant response rating, Foxtail, Green (green foxtail [15]; [30]): 90 | Plant response rating, Foxtail, Green (green foxtail [15]; [31]): 70 | Plant response rating, Kochia (kochia [16]; [30]): 90 | Plant response rating, Kochia (kochia [16]; [31]): 90 | Plant response rating, Oat, Wild (oat, wild [17]; [30]): 60 | Plant response rating, Oat, Wild (oat, wild [17]; [31]): 0 | Plant response rating, Pigweed, Palmer (pigweed, palmer [18]; [30]): 100 | Plant response rating, Pigweed, Palmer (pigweed, palmer [18]; [31]): 90 | Plant response rating, Ragweed (ragweed [19]; [31]): 70 | Plant response rating, Ryegrass, Italian (ryegrass, Italian [20]; [31]): 30 | Plant response rating, Soybean (soybean [21]; [31]): 20 | Plant response rating, Wheat (wheat [22]; [31]): 20 | Plant response rating, Horseweed (horseweed; [30]): 60 | Plant response rating, Horseweed (horseweed; [31]): 60 | Plant response rating, Barnyardgrass (Flood) (barnyardgrass [23]): 25 | Plant response rating, Ducksalad (Flood) (ducksalad): 15 | Plant response rating, Rice (Flood) (rice): 15 | Plant response rating, Sedge, Umbrella (Flood) (sedge, umbrella): 45

From patent US20260262643A1, “HERBICIDAL BENZOXAZINES” (FMC CORPORATION, priority 2022, published 2026)
